Measured values from ChEMBL document CHEMBL1140463, “From ATP to AZD6140: the discovery of an orally active reversible P2Y12 receptor antagonist for the prevention of thrombosis” (Bioorg Med Chem Lett, 2007).
Blank lines part the entries; values can stand above or below the molecule they belong to. The source made the active and inactive calls. The calls are words filed in the database; no cut-off is given here.

Key:
[1] = Oral bioavailability in dog at 1 mg/kg; type: ADME, organism-based, Canis lupus familiaris; conditions: in vivo
Hepatocyte [2] = test: Metabolic stability in human hepatocytes in presence of NADPH relative to dextromethorphan; type: ADME, cell-based
[3] = Half life in dog at 1 mg/kg, iv; type: ADME, organism-based, Canis lupus familiaris; parameters: dose 1 mg/kg, route intravenous; conditions: in vivo
Hepatocyte [4] = test: Metabolic stability in human hepatocytes in presence of UDPGA relative to zileuton; type: ADME, cell-based
in vivo = conditions: rat, iv, 3 mg/kg
Description: Plasma clearance in rat at 3 mg/kg, iv

[5] = Volume of distribution at steady state in dog at 1 mg/kg, iv; type: ADME, organism-based, Canis lupus familiaris; parameters: dose 1 mg/kg, route intravenous; conditions: in vivo, read-out: Vdss
[6] = Plasma clearance in dog at 1 mg/kg, iv; type: ADME, organism-based, Canis lupus familiaris; parameters: dose 1 mg/kg, route intravenous
[7] = Volume of distribution at steady state in rat at 3 mg/kg, iv; type: ADME, organism-based; parameters: dose 3 mg/kg, route intravenous; conditions: in vivo, read-out: Vdss
P2Y purinoceptor 12 = P2Y purinoceptor 12 (Homo sapiens, UniProt Q9H244); test: Displacement of [125I] labeled ligand from human P2Y12 receptor in human platelets
[8] = Half life in rat at 3 mg/kg, iv; type: ADME, organism-based; parameters: dose 3 mg/kg, route intravenous; conditions: in vivo
[9] = Oral bioavailability in rat at 3 to 10 mg/kg; type: ADME, organism-based; conditions: in vivo
Canis familiaris = test: Inhibition of ADP-induced platelet aggregation in po dosed dog; type: functional, organism-based; conditions: Canis lupus familiaris

P2Y purinoceptor 12, sequence (Q9H244 whole entry): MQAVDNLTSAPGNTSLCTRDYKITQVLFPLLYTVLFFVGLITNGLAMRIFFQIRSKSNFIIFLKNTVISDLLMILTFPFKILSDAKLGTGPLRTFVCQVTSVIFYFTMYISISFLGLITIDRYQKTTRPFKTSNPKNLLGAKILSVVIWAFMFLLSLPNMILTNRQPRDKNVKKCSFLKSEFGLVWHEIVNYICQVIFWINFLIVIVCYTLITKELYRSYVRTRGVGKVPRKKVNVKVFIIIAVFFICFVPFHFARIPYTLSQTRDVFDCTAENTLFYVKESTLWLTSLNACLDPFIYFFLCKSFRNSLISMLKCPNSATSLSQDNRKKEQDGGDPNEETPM

bioavailability [1]: 72%
Ratio (Hepatocyte [2]): 24
half-life [3]: 174 min
Stability (Hepatocyte [4]): Stable
clearance (in vivo; plasma): 21 mL/min/kg
Vd [5]: 3 L/kg
clearance [6]: 9 mL/min/kg
Vd [7]: 3.8 L/kg
Ki (P2Y purinoceptor 12): 2 nM
half-life [8]: 156 min
bioavailability [9]: 24%
Structure (SMILES): CCCSc1nc(N[C@@H]2C[C@H]2c2ccc(F)c(F)c2)c2nnn([C@@H]3C[C@H](OCCO)[C@@H](O)[C@H]3O)c2n1 [TICAGRELOR]

Structure (SMILES): CCCSc1nc(N[C@@H]2C[C@H]2c2ccccc2)c2nnn([C@@H]3C[C@H](C(N)=O)[C@@H](O)[C@H]3O)c2n1
clearance (in vivo; plasma): 20 mL/min/kg
Vd [7]: 2.2 L/kg
Ki (P2Y purinoceptor 12): 1.58 nM
half-life [8]: 120 min
bioavailability [9]: < 5%

Structure (SMILES): CCCSc1nc(N[C@@H]2C[C@H]2c2ccccc2)c2nnn([C@@H]3C[C@H](C(=O)O)[C@@H](O)[C@H]3O)c2n1
clearance (in vivo; plasma): 16 mL/min/kg
Vd [7]: 0.5 L/kg
Ki (P2Y purinoceptor 12): 0.251 nM
half-life [8]: 30 min

Structure (SMILES): CCCSc1nc(N[C@@H]2C[C@H]2c2ccccc2)c2nnn([C@@H]3C[C@H](CO)[C@@H](O)[C@H]3O)c2n1.Cl
Ratio (Hepatocyte [2]): 27
Ratio (Hepatocyte [4]): 19
Ki (P2Y purinoceptor 12): 6.31 nM
bioavailability [9]: 37%

Structure (SMILES): OC[C@H]1C[C@@H](n2nnc3c(N[C@@H]4C[C@H]4c4ccc(F)c(F)c4)nc(SCCC(F)(F)F)nc32)[C@H](O)[C@@H]1O
bioavailability [1]: 59%
Ratio (Hepatocyte [2]): > 30
half-life [3]: 288 min
Stability (Hepatocyte [4]): Stable
clearance (in vivo; plasma): 11 mL/min/kg
Vd [5]: 5.6 L/kg
clearance [6]: 16.5 mL/min/kg
Vd [7]: 2.7 L/kg
Ki (P2Y purinoceptor 12): 5.01 nM
half-life [8]: 180 min
bioavailability [9]: 17%

Structure (SMILES): CCCSc1nc(N[C@@H]2C[C@H]2c2ccccc2)c2nnn([C@@H]3C[C@H](O)[C@@H](O)[C@H]3O)c2n1
Stability (Hepatocyte [2]): Stable
Ratio (Hepatocyte [4]): 3
Ki (P2Y purinoceptor 12): 2 nM
bioavailability [9]: 50%

Structure (SMILES): OCCO[C@H]1C[C@@H](n2nnc3c(N[C@@H]4C[C@H]4c4ccc(F)c(F)c4)nc(SCCC(F)(F)F)nc32)[C@H](O)[C@@H]1O
Ratio (Hepatocyte [2]): 32
Stability (Hepatocyte [4]): Stable
clearance (in vivo; plasma): 12 mL/min/kg
Vd [7]: 2.1 L/kg
Ki (P2Y purinoceptor 12): 0.631 nM
half-life [8]: 150 min
bioavailability [9]: 9%

Structure (SMILES): CCCSc1nc(N[C@@H]2C[C@H]2c2ccccc2)c2nnn([C@@H]3C[C@H](OCCO)[C@@H](O)[C@H]3O)c2n1
Ratio (Hepatocyte [2]): 13
Ratio (Hepatocyte [4]): 24
Ki (P2Y purinoceptor 12): 3.16 nM
bioavailability [9]: 26%

Structure (SMILES): CCCSc1nc(N[C@@H]2C[C@H]2c2ccccc2)c2nnn([C@@H]3CC[C@@H](O)[C@H]3O)c2n1
Ratio (Hepatocyte [4]): 1
Ki (P2Y purinoceptor 12): 2.51 nM
bioavailability [9]: 38%

Structure (SMILES): CCCSc1nc(N[C@@H]2C[C@H]2c2ccccc2)c2nnn([C@@H]3C[C@H](CO)[C@@H](O)[C@H]3O)c2n1 [listing 1 of 2 here]
Ratio (Hepatocyte [2]): > 30
Ratio (Hepatocyte [4]): 5
clearance (in vivo; plasma): 16 mL/min/kg
Vd [7]: 2.9 L/kg
Ki (P2Y purinoceptor 12): 5.01 nM
half-life [8]: 150 min
bioavailability [9]: 35%

Structure (SMILES): OC[C@H]1C[C@@H](n2nnc3c(N[C@@H]4C[C@H]4c4ccccc4)nc(SCCC(F)(F)F)nc32)[C@H](O)[C@@H]1O
Stability (Hepatocyte [2]): Stable
Ratio (Hepatocyte [4]): 19
Ki (P2Y purinoceptor 12): 5.01 nM

Structure (SMILES): CCCSc1nc(N[C@@H]2C[C@H]2c2ccccc2)c2nnn([C@@H]3C[C@H](CO)[C@@H](O)[C@H]3O)c2n1 [listing 2 of 2 here]
Activity (Canis familiaris): Active

Structure (SMILES): CCCCNc1nc(SCCC)nc2c1nnn2[C@@H]1C[C@H](C(=O)O)[C@@H](O)[C@H]1O
clearance (in vivo; plasma): 30 mL/min/kg
Vd [7]: 0.4 L/kg
Ki (P2Y purinoceptor 12): 5.01 nM
half-life [8]: 30 min
bioavailability [9]: < 5%

Structure (SMILES): CCCCNc1nc(SCCC)nc2c1nnn2[C@@H]1C[C@H](CO)[C@@H](O)[C@H]1O
clearance (in vivo; in vivo): 29 mL/min/kg
Vd [7]: 2.3 L/kg
Ki (P2Y purinoceptor 12): 79.4 nM
half-life [8]: 72 min
bioavailability [9]: < 5%

Structure (SMILES): CCCCNc1nc(SCCC)nc2c1nnn2[C@@H]1C[C@H](C(N)=O)[C@@H](O)[C@H]1O
clearance (in vivo; plasma): 21 mL/min/kg
Vd [7]: 1.6 L/kg
Ki (P2Y purinoceptor 12): 20 nM
half-life [8]: 84 min
bioavailability [9]: < 5%
